Assays:
hNaV1.7 channel = target: T1, hNaV1.7 channel (Homo sapiens, UniProt Q15858); assay: Automated patch-clamp block of hNaV1.7 peak Na+ current in CHO cells; assay type: cell-based; settings: for IC50: CHO cells stably expressing hNaV1.7, SyncroPatch 384 PE whole-cell, holding -100 mV, -10 mV test pulse 50 ms every 5 s, room temperature 18-22°C, 0.3% BSA, steady state or end of 15-min application, mean, S.E.M. and n cells; for hNaV1.7 IC50 versus WT: ratio of analogue mean IC50 to HwTx-IV WT mean IC50 on hNaV1.7
T1 construct: expressed in transfected cells
T1 sequence (Q15858 whole entry): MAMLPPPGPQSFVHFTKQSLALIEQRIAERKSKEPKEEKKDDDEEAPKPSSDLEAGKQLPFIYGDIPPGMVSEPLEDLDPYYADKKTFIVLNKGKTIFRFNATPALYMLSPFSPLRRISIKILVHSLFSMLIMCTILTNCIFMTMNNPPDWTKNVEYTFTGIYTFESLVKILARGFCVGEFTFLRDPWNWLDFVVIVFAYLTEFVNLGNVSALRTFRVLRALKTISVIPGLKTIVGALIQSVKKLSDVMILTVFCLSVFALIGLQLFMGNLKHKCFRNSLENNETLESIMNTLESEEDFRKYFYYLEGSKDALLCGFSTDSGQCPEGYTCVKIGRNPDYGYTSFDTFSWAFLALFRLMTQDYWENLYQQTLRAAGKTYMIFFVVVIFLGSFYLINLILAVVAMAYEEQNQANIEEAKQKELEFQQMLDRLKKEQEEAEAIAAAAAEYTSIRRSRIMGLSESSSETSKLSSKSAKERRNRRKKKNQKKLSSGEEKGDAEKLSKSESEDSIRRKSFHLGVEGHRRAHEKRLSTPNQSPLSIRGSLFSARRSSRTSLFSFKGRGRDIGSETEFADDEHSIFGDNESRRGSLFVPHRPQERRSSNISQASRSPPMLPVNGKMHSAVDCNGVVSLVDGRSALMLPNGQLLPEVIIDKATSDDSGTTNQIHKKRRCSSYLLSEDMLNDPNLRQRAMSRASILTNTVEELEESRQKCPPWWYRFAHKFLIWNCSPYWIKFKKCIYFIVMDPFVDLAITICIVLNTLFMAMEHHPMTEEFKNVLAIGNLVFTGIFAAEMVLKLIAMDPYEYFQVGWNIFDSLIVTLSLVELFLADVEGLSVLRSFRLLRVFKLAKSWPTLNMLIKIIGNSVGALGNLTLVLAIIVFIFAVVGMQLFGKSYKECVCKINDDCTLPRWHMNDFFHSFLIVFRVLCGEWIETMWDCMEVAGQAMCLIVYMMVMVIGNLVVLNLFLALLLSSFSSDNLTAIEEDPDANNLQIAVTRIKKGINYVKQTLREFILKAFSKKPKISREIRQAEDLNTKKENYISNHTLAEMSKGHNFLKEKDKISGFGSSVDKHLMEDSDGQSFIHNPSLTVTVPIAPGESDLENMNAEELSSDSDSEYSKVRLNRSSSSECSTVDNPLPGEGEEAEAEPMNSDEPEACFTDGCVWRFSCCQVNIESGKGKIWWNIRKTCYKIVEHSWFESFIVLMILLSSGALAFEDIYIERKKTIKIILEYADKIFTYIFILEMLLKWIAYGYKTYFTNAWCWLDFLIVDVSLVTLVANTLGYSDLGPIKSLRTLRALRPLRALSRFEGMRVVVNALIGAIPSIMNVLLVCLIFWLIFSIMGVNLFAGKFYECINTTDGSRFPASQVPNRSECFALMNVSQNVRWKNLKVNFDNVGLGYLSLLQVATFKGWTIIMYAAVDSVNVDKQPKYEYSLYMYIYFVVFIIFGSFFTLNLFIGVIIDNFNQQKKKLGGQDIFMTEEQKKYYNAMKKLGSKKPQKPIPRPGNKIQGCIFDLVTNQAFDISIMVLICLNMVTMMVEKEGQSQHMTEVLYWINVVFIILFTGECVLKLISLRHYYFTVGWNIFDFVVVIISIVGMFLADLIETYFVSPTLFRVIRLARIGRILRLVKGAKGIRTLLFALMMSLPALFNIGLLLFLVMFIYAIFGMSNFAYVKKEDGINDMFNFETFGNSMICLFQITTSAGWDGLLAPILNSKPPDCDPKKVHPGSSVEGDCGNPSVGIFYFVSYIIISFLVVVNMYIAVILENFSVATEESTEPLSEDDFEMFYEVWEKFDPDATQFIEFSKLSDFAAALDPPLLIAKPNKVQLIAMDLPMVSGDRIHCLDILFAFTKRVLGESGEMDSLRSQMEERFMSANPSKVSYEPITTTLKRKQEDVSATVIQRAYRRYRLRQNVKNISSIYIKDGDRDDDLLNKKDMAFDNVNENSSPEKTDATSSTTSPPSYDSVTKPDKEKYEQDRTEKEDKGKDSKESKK
Procedure, shortened: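 Automated whole-cell patch clamp on CHO cells stably expressing hNaV1.7, held at −100 mV at 18–22°C. Peak current evoked by 50 ms steps to −10 or 0 mV every 5 s; HwTx-IV analogues applied in extracellular solution with 0.3% BSA. Percent inhibition taken at steady-state block or after 15 min application.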

hNaV1.6 channel = target: T2, hNaV1.6 channel (Homo sapiens, UniProt Q9UQD0); assay: Automated patch-clamp block of hNaV1.6 peak Na+ current in HEK-293 cells; assay type: cell-based; settings: for IC50: HEK-293 cells stably expressing hNaV1.6, SyncroPatch 384 PE whole-cell, holding -100 mV, 0 mV test pulse 50 ms every 5 s, room temperature 18-22°C, 0.3% BSA, steady state or end of 15-min application, mean, S.E.M. and n cells; for hNaV1.6 IC50 versus WT: ratio of analogue mean IC50 to HwTx-IV WT mean IC50 on hNaV1.6
T2 construct: expressed in transfected cells
T2 sequence (Q9UQD0 whole entry): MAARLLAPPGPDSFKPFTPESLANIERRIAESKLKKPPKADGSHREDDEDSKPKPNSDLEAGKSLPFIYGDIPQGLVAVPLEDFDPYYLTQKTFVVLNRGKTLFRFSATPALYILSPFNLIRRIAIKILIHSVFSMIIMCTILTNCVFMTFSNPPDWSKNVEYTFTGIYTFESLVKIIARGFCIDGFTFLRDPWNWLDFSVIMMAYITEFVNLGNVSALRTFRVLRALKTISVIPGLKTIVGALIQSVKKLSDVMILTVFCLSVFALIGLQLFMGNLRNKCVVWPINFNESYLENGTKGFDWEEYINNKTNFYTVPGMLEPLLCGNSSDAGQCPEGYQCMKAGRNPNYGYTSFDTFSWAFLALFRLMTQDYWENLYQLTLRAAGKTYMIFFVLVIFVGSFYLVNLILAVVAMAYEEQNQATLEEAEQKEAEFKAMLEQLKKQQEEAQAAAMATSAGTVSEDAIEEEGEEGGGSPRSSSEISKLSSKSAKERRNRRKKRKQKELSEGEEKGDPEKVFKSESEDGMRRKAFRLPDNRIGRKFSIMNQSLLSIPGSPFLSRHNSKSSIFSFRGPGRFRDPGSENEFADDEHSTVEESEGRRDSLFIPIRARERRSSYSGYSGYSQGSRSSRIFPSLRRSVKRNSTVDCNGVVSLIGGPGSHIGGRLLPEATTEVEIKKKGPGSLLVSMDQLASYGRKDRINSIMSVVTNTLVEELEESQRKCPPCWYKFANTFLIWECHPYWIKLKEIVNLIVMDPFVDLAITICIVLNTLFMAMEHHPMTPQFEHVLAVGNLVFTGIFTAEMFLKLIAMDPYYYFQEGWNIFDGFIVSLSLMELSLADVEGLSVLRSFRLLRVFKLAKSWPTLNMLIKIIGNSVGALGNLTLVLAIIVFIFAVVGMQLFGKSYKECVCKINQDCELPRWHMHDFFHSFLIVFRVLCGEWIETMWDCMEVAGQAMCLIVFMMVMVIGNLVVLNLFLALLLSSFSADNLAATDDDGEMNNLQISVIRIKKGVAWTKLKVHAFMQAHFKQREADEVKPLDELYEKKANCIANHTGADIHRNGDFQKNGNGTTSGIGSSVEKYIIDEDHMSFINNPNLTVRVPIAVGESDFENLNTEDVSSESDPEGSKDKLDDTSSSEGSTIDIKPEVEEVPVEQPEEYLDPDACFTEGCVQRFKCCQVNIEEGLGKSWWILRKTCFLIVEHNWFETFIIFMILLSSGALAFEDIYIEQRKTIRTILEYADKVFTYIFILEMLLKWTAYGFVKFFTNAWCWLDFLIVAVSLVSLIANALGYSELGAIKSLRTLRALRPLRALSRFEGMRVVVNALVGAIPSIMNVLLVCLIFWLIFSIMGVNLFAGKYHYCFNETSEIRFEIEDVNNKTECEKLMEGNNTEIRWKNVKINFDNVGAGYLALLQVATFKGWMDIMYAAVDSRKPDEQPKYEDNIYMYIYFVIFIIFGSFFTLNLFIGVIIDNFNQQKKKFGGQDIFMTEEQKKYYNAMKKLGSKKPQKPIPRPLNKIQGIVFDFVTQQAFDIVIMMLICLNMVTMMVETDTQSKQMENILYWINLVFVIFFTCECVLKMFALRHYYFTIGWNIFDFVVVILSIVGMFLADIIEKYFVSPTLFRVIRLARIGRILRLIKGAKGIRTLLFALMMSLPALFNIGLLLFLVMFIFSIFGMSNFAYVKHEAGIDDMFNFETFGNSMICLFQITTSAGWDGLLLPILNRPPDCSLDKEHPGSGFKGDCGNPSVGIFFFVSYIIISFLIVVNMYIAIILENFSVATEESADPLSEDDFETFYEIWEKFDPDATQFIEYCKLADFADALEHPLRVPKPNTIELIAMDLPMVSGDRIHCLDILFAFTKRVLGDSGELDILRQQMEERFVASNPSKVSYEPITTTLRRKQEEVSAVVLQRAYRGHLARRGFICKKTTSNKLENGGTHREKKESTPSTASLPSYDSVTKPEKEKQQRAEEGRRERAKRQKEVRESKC
Procedure, shortened: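 Whole-cell automated patch clamp at −100 mV holding, room temperature (18–22°C), CsF-based internal, 0.3% BSA in external solution; 50 ms steps to −10 or 0 mV every 5 s. Percent peak-current inhibition taken at steady-state block or after 15 min application, used for dose-response curves.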

Row | SMILES | IC50 (hNaV1.7 channel) [nM] | hNaV1.7 IC50 versus WT (hNaV1.7 channel) | IC50 (hNaV1.6 channel) [nM] | hNaV1.6 IC50 versus WT (hNaV1.6 channel)
1 | CC[C@H](C)[C@H](NC(=O)[C@H](CCC(N)=O)NC(=O)[C@H](Cc1ccc(O)cc1)NC(=O)[C@H](CCCCN)NC(=O)[C@@H]1CSSC[C@@H]2NC(=O)[C@H](CCC(N)=O)NC(=O)[C@H](CC(=O)O)NC(=O)[C@H](CC(N)=O)NC(=O)[C@H](CO)NC(=O)[C@@H]3CCCN3C(=O)[C@H](CC(N)=O)NC(=O)[C@@H]3CSSC[C@H](NC(=O)[C@H](C(C)C)NC(=O)[C@H](CC(C)C)NC(=O)[C@H](CCCCN)NC(=O)[C@H](CO)NC(=O)[C@H](CO)NC(=O)[C@H](CCCCN)NC(=O)[C@H](CSSC[C@H](NC(=O)[C@@H](N)CCC(=O)O)C(=O)N[C@@H](CC(C)C)C(=O)N[C@@H](CCC(=O)O)C(=O)N[C@@H]([C@@H](C)CC)C(=O)N[C@@H](Cc4ccccc4)C(=O)N[C@@H](CCCCN)C(=O)N[C@@H](C)C(=O)N3)NC2=O)C(=O)N[C@@H](CO)C(=O)N[C@@H](C)C(=O)N[C@@H](CCCCN)C(=O)N[C@@H]([C@@H](C)O)C(=O)N[C@@H](CCCNC(=N)N)C(=O)N[C@@H](Cc2c[nH]c3ccccc23)C(=O)N1)C(N)=O [HwTx-IV R ^26A] | 112 | 11.28 | 614 | 2.71
2 | CC[C@H](C)[C@H](NC(=O)[C@H](CCC(N)=O)NC(=O)[C@H](Cc1ccc(O)cc1)NC(=O)[C@H](CCCCN)NC(=O)[C@@H]1CSSC[C@@H]2NC(=O)[C@H](CCC(N)=O)NC(=O)[C@H](CC(=O)O)NC(=O)[C@H](CC(N)=O)NC(=O)[C@H](CO)NC(=O)[C@@H]3CCCN3C(=O)[C@H](CC(N)=O)NC(=O)[C@@H]3CSSC[C@H](NC(=O)[C@H](C(C)C)NC(=O)[C@H](CC(C)C)NC(=O)[C@H](CCCCN)NC(=O)[C@H](CO)NC(=O)[C@H](CO)NC(=O)[C@H](CCCCN)NC(=O)[C@H](CSSC[C@H](NC(=O)[C@@H](N)CCC(=O)O)C(=O)N[C@@H](CC(C)C)C(=O)N[C@@H](CCC(=O)O)C(=O)N[C@@H]([C@@H](C)CC)C(=O)N[C@@H](Cc4ccccc4)C(=O)N[C@@H](CCCCN)C(=O)N[C@@H](C)C(=O)N3)NC2=O)C(=O)N[C@@H](CO)C(=O)N[C@@H](CCC(N)=O)C(=O)N[C@@H](CCCCN)C(=O)N[C@@H]([C@@H](C)O)C(=O)N[C@@H](CCCNC(=N)N)C(=O)N[C@@H](Cc2c[nH]c3ccccc23)C(=O)N1)C(N)=O [HwTx-IV R ^26Q] | 141 | 14.28 | > 1000 | >4.4
3 | CC[C@H](C)[C@H](NC(=O)[C@H](CCC(N)=O)NC(=O)[C@H](Cc1c[nH]c2ccccc12)NC(=O)[C@H](CCCCN)NC(=O)[C@@H]1CSSC[C@@H]2NC(=O)[C@H](CCC(N)=O)NC(=O)[C@H](CC(=O)O)NC(=O)[C@H](CC(N)=O)NC(=O)[C@H](CO)NC(=O)[C@@H]3CCCN3C(=O)[C@H](CC(N)=O)NC(=O)[C@@H]3CSSC[C@H](NC(=O)[C@H](C(C)C)NC(=O)[C@H](CC(C)C)NC(=O)[C@H](CCCCN)NC(=O)[C@H](CO)NC(=O)[C@H](CO)NC(=O)[C@H](CCCCN)NC(=O)[C@H](CSSC[C@H](NC(=O)[C@@H](N)CCC(=O)O)C(=O)N[C@@H](CC(C)C)C(=O)N[C@@H](CCC(=O)O)C(=O)N[C@@H]([C@@H](C)CC)C(=O)N[C@@H](Cc4ccccc4)C(=O)N[C@@H](CCCCN)C(=O)N[C@@H](C)C(=O)N3)NC2=O)C(=O)N[C@@H](CO)C(=O)N[C@@H](CCCNC(=N)N)C(=O)N[C@@H](CCCCN)C(=O)N[C@@H]([C@@H](C)O)C(=O)N[C@@H](CCCNC(=N)N)C(=O)N[C@@H](Cc2c[nH]c3ccccc23)C(=O)N1)C(N)=O [HwTx-IV Y^33W] | 22.2 | 2.24 | 207 | 0.91

Reference: publication PMC8722715 (Frontiers in Cell and Developmental Biology, 2021)
